How the values were obtained:
Assay in all cases: Radiometric kinase panel
Assay type in all cases: biochemical
GSK3alpha = molecular target: T1, GSK3alpha (Homo sapiens, UniProt P49840)
T1 construct: either as full-length or enzymatically active fragments; purchased ProQinase GmbH (Reaction Biology)
Summary of the method: (§1)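 Activity was measured radiometrically from [gamma-33P]-ATP incorporation into substrate. The kinases were recombinant human GST- or His-tagged proteins, full-length or active fragments, expressed in Sf9 or E. coli. Compound in 10% DMSO was added before the enzyme/substrate mix, which started the reaction.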

CSK = molecular target: T2, CSK (Homo sapiens, UniProt P41240)
T2 construct: either as full-length or enzymatically active fragments; purchased ProQinase GmbH (Reaction Biology)
Summary of the method: as §1

MARK3 = molecular target: T3, MARK3 (Homo sapiens, UniProt P27448)
T3 construct: either as full-length or enzymatically active fragments; purchased ProQinase GmbH (Reaction Biology); host or cells: Sf9 insect cells or E. coli
Summary of the method: as §1

EPHB3 = molecular target: T4, EPHB3 (Homo sapiens, UniProt P54753)
T4 construct: either as full-length or enzymatically active fragments; purchased ProQinase GmbH (Reaction Biology)
Summary of the method: as §1

SIK1 = molecular target: T5, SIK1 (Homo sapiens, UniProt P57059)
T5 construct: either as full-length or enzymatically active fragments; purchased ProQinase GmbH (Reaction Biology)
Summary of the method: as §1

BMPR1A = molecular target: T6, BMPR1A (Homo sapiens, UniProt P36894)
T6 construct: either as full-length or enzymatically active fragments; purchased ProQinase GmbH (Reaction Biology)
Summary of the method: as §1

AMPKalpha1 = molecular target: T7, AMPKalpha1 (Homo sapiens, UniProt Q13131)
T7 construct: either as full-length or enzymatically active fragments; purchased ProQinase GmbH (Reaction Biology)
Summary of the method: as §1

IGF1R = molecular target: T8, IGF1R (Homo sapiens, UniProt P08069)
T8 construct: either as full-length or enzymatically active fragments; purchased ProQinase GmbH (Reaction Biology); host or cells: Sf9 insect cells or E. coli
Summary of the method: as §1

CDK3/CycC = molecular target: T9, CDK3/CycC (Homo sapiens, UniProt Q00526)
T9 construct: purchased ProQinase GmbH (Reaction Biology); host or cells: Sf9 insect cells or E. coli (not specified per kinase)
Summary of the method: as §1

PKA = molecular target: T10, PKA (Homo sapiens, UniProt P17612)
T10 construct: either as full-length or enzymatically active fragments; purchased ProQinase GmbH (Reaction Biology); host or cells: Sf9 insect cells or E. coli
Summary of the method: as §1

CDC42BPA = molecular target: T11, CDC42BPA (Homo sapiens, UniProt Q5VT25)
T11 construct: either as full-length or enzymatically active fragments; purchased ProQinase GmbH (Reaction Biology); host or cells: Sf9 insect cells or E. coli
Summary of the method: as §1

JNK3 = molecular target: T12, JNK3 (Homo sapiens, UniProt P53779)
T12 construct: either as full-length or enzymatically active fragments; purchased ProQinase GmbH (Reaction Biology)
Summary of the method: as §1

MAP3K10 = molecular target: T13, MAP3K10 (Homo sapiens, UniProt Q02779)
T13 construct: either as full-length or enzymatically active fragments; purchased ProQinase GmbH (Reaction Biology)
Summary of the method: as §1

CK1alpha1 = molecular target: T14, CK1alpha1 (Homo sapiens, UniProt P48729)
T14 construct: either as full-length or enzymatically active fragments; purchased ProQinase GmbH (Reaction Biology); host or cells: Sf9 insect cells or E. coli
Summary of the method: as §1

SIK3 = molecular target: T15, SIK3 (Homo sapiens, UniProt Q9Y2K2)
T15 construct: either as full-length or enzymatically active fragments; purchased ProQinase GmbH (Reaction Biology)
Summary of the method: as §1

PIM3 = molecular target: T16, PIM3 (Homo sapiens, UniProt Q86V86)
T16 construct: either as full-length or enzymatically active fragments; purchased ProQinase GmbH (Reaction Biology)
Summary of the method: as §1

RON = molecular target: T17, RON (Homo sapiens, UniProt Q04912)
T17 construct: purchased ProQinase GmbH (Reaction Biology)
Summary of the method: as §1

PHKG2 = molecular target: T18, PHKG2 (Homo sapiens, UniProt P15735)
T18 construct: either as full-length or enzymatically active fragments; purchased ProQinase GmbH (Reaction Biology)
Summary of the method: as §1

LCK = molecular target: T19, LCK (Homo sapiens, UniProt P06239)
T19 construct: either as full-length or enzymatically active fragments; purchased ProQinase GmbH (Reaction Biology)
Summary of the method: as §1

ERK5 = molecular target: T20, ERK5 (Homo sapiens, UniProt Q13164)
T20 construct: either as full-length or enzymatically active fragments; purchased ProQinase GmbH (Reaction Biology)
Summary of the method: as §1

DYRK4 = molecular target: T21, DYRK4 (Homo sapiens, UniProt Q9NR20)
T21 construct: either as full-length or enzymatically active fragments; purchased ProQinase GmbH (Reaction Biology)
Summary of the method: as §1

CDK6/CycD1 = molecular target: T22, CDK6/CycD1 (Homo sapiens, UniProt Q00534)
T22 construct: purchased ProQinase GmbH (Reaction Biology); host or cells: Sf9 insect cells or E. coli (not specified per kinase)
Summary of the method: as §1

EPHA1 = molecular target: T23, EPHA1 (Homo sapiens, UniProt P21709)
T23 construct: either as full-length or enzymatically active fragments; purchased ProQinase GmbH (Reaction Biology)
Summary of the method: as §1

PKCalpha = molecular target: T24, PKCalpha (Homo sapiens, UniProt P17252)
T24 construct: either as full-length or enzymatically active fragments; purchased ProQinase GmbH (Reaction Biology)
Summary of the method: as §1

EPHA8 = molecular target: T25, EPHA8 (Homo sapiens, UniProt P29322)
T25 construct: either as full-length or enzymatically active fragments; purchased ProQinase GmbH (Reaction Biology); host or cells: Sf9 insect cells or E. coli (not specified per kinase)
Summary of the method: as §1

p38alpha = molecular target: T26, p38alpha (Homo sapiens, UniProt Q16539)
T26 construct: either as full-length or enzymatically active fragments; purchased ProQinase GmbH (Reaction Biology)
Summary of the method: as §1

ASK1 = molecular target: T27, ASK1 (Homo sapiens, UniProt Q99683)
T27 construct: either as full-length or enzymatically active fragments; purchased ProQinase GmbH (Reaction Biology)
Summary of the method: as §1

MST1 = molecular target: T28, MST1 (Homo sapiens, UniProt Q13043)
T28 construct: purchased ProQinase GmbH (Reaction Biology); host or cells: Sf9 insect cells or E. coli (not specified per kinase)
Summary of the method: as §1

T4 sequence (P54753 34-998): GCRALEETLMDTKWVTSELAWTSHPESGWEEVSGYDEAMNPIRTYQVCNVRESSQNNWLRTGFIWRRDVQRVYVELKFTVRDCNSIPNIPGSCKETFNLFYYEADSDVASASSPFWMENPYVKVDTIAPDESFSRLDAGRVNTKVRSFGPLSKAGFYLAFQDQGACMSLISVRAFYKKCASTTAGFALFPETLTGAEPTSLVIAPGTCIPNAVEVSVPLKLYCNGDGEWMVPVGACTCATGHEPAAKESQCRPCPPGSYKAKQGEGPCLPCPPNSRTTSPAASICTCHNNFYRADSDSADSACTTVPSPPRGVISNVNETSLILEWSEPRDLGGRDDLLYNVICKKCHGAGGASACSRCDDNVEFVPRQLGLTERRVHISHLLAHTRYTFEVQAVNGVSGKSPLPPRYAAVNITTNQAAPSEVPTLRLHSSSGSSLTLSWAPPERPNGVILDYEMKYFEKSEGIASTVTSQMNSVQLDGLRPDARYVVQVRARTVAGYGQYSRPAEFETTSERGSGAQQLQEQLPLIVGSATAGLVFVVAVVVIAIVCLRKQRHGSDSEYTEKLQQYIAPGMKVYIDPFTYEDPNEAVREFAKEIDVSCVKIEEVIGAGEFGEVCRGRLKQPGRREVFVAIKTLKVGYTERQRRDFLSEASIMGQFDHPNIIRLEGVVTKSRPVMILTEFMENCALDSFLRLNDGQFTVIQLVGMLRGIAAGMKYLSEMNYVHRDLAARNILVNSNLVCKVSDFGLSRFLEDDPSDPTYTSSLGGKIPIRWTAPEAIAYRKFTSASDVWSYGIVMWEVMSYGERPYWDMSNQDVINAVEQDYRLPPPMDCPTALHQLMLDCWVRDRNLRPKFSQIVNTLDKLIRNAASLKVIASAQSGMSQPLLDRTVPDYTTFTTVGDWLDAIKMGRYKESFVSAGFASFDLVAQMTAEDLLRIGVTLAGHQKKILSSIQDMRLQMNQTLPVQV
T15 sequence (Q9Y2K2 whole entry, the tested form may be a part): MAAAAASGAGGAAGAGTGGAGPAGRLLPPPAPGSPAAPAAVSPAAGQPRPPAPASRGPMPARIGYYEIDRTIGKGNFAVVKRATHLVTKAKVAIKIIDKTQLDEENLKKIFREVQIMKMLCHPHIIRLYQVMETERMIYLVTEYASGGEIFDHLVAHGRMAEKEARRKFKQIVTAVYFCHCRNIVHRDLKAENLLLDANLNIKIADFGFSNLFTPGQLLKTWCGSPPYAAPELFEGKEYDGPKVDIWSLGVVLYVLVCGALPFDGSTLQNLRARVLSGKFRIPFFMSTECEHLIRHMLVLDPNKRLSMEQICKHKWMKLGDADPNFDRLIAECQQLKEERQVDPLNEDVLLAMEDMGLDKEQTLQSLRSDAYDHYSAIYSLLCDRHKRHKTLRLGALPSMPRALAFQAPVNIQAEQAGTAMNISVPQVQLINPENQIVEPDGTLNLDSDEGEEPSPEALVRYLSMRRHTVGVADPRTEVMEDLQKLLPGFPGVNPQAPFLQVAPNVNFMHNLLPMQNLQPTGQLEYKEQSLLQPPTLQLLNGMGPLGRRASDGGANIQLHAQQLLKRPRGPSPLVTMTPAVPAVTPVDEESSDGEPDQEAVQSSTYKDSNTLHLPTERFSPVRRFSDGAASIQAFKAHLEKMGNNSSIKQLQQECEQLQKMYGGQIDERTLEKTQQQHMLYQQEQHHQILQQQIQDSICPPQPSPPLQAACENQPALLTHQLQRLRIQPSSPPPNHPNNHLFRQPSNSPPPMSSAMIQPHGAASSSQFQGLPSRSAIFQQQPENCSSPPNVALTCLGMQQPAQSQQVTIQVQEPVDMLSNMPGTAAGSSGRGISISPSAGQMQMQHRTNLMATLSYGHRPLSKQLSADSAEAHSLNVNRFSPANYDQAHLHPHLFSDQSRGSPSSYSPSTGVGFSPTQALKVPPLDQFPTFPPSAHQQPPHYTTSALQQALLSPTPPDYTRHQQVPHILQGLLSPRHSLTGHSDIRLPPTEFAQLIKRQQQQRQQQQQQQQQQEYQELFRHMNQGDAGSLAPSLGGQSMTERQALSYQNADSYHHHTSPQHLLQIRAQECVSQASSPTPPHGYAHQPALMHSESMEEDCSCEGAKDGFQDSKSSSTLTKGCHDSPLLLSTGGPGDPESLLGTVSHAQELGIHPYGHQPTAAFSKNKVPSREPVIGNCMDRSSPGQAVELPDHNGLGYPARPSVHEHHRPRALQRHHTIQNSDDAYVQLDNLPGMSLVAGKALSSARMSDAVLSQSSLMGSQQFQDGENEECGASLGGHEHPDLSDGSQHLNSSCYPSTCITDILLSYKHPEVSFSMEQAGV
T3 sequence (P27448 whole entry, the tested form may be a part): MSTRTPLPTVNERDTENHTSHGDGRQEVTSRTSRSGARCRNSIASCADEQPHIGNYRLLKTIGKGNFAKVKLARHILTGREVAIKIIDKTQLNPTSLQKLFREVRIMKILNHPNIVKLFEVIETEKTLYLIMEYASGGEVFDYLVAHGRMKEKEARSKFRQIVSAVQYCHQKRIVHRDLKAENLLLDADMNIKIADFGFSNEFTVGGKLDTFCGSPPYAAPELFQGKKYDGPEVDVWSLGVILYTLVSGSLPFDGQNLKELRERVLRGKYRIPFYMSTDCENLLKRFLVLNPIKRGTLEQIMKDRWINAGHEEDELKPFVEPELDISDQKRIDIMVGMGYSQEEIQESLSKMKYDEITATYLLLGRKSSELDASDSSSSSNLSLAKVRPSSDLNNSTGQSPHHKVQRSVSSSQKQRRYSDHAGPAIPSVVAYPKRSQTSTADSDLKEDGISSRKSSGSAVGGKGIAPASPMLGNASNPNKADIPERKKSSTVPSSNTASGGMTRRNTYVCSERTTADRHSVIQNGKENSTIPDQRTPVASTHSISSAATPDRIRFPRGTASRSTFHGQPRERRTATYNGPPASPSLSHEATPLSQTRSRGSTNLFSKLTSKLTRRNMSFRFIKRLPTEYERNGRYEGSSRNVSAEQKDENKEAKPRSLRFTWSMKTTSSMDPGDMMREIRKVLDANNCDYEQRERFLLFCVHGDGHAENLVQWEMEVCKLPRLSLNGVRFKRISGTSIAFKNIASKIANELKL
T6 sequence (P36894 24-532): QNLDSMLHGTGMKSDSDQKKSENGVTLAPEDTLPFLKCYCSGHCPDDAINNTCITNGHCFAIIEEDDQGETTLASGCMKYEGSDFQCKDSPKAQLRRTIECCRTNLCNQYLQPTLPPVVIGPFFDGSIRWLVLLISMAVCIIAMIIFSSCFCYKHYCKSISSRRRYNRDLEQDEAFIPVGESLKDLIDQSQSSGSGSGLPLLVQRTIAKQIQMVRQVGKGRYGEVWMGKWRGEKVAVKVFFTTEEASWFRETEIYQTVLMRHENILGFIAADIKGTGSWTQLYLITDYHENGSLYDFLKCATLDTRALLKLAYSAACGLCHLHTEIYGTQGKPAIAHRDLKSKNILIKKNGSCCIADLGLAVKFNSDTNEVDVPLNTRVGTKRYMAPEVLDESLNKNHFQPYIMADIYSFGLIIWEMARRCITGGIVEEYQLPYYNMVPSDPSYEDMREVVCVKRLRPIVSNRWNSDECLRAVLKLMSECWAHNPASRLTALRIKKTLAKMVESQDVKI
T20 sequence (Q13164 whole entry, the tested form may be a part): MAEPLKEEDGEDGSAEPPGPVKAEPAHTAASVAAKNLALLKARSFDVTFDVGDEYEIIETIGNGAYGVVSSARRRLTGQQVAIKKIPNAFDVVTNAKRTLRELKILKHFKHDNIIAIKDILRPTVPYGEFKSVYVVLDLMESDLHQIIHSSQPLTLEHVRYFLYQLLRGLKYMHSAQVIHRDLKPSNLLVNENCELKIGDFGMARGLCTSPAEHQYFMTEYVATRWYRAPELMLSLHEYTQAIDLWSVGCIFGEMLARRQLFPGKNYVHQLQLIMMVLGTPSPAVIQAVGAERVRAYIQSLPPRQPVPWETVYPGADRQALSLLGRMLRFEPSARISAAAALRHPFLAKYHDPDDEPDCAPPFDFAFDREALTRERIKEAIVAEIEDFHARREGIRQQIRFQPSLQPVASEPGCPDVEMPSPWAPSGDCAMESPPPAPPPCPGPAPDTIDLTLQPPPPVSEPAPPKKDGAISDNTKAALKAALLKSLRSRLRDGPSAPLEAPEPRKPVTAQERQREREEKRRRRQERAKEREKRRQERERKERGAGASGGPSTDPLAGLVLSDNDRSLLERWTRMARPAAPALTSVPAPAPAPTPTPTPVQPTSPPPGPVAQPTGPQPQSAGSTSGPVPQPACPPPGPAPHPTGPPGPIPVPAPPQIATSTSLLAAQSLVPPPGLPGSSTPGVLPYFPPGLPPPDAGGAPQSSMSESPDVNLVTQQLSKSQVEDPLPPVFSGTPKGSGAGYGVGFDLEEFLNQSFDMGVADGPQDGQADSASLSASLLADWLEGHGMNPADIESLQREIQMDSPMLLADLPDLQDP
T26 sequence (Q16539 whole entry, the tested form may be a part): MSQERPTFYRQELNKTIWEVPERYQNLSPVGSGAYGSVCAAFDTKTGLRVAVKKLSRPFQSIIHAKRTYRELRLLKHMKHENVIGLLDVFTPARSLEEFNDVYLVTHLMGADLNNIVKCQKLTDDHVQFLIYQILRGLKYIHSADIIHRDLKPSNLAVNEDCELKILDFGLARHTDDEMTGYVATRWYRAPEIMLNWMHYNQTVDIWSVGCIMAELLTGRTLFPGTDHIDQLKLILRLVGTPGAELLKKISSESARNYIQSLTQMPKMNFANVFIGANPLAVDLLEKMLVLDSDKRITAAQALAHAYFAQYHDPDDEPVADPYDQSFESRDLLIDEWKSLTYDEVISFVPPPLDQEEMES

C=CC(=O)Nc1ccc(C(=O)N2CC[C@@H](Nc3ncc(C#N)cn3)C2)cc1 [Compound 4, (R)-N-(4-(3-((5-cyanopyrimidin-2-yl)amino)pyrrolidine-1-carbonyl)phenyl)acrylamide]
inhibition at 1 µM (GSK3alpha): 6% | inhibition at 1 µM (CSK): 7% | inhibition at 1 µM (MARK3): -17% | inhibition at 1 µM (EPHB3): 5% | inhibition at 1 µM (SIK1): 7% | inhibition at 1 µM (BMPR1A): 2% | inhibition at 1 µM (AMPKalpha1): 2% | inhibition at 1 µM (IGF1R): -23% | inhibition at 1 µM (CDK3/CycC): 1% | inhibition at 1 µM (PKA): 13% | inhibition at 1 µM (CDC42BPA): -16% | inhibition at 1 µM (JNK3): -4% | inhibition at 1 µM (MAP3K10): -5% | inhibition at 1 µM (CK1alpha1): 12% | inhibition at 1 µM (SIK3): 8% | inhibition at 1 µM (PIM3): 4% | inhibition at 1 µM (RON): -1% | inhibition at 1 µM (PHKG2): 2% | inhibition at 1 µM (LCK): -3% | inhibition at 1 µM (ERK5): 6% | inhibition at 1 µM (DYRK4): -7% | inhibition at 1 µM (CDK6/CycD1): 1% | inhibition at 1 µM (EPHA1): 3% | inhibition at 1 µM (PKCalpha): -5% | inhibition at 1 µM (EPHA8): 9% | inhibition at 1 µM (p38alpha): 3% | inhibition at 1 µM (ASK1): 7% | inhibition at 1 µM (MST1): 1%

Source: patent publication US20230074545A1, “TREATMENT OF CANCER WITH CDK12/13 INHIBITORS” (Kinnate Biopharma Inc., priority 2019, published 2023)
